Source: publication PMC4731470, “Inhibitory Effect of Bridged Nucleosides on Thermus aquaticus DNA Polymerase and Insight into the Binding Interactions” (PLoS ONE, 2016)

Columns and labels:
[1] = target: T1, Taq DNA polymerase (Thermus aquaticus, UniProt P19821); test: TaqMan qPCR kinetics (double-reciprocal plot); IC50 also by TaqMan qPCR and EvaGreen primer extension assay; type: biochemical
T1 construct: gene polA

[2] = target: T1, Taq DNA polymerase; test: TaqMan qPCR (IC50 […]); EvaGreen primer extension assay (IC50 […]); type: biochemical

T1 sequence (P19821 whole entry): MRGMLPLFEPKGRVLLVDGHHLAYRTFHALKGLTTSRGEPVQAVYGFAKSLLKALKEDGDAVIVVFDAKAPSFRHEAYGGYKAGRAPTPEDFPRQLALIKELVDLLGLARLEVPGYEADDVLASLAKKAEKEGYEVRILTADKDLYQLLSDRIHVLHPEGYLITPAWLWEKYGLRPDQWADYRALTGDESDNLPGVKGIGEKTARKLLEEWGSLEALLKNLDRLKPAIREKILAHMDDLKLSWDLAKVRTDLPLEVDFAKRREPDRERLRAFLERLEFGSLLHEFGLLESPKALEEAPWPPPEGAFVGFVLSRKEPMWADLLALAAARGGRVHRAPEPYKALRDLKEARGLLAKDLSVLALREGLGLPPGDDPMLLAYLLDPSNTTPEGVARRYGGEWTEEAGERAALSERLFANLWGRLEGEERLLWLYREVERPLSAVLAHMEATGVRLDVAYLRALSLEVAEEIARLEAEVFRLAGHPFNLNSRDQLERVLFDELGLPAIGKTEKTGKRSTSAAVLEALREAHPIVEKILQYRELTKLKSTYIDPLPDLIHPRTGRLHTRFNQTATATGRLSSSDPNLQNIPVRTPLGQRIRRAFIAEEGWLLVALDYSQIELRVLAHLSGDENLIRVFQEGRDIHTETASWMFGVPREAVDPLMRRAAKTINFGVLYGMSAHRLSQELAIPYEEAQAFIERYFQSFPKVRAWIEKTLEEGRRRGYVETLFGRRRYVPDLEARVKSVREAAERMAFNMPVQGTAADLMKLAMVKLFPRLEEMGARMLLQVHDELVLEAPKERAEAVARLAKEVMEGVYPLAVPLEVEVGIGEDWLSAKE

SMILES	Ki [1] [µM]	IC50 [2] [µM]
Cc1cn([C@@H]2O[C@@]3(CO)CO[C@@H]2[C@@H]3O)c(=O)[nH]c1=O [2',4'-bridged thymidine]	9.7 ± 1.1	
Nc1ccn([C@H]2CC[C@@H](COP(=O)(O)OP(=O)(O)OP(=O)(O)O)O2)c(=O)n1 [ddCTP]		300 ± 100
